# T1: rNOSIP (Homo sapiens, UniProt Q9Y314)
# T1 construct: made in house; host or cells: E. coli BL21 (DE3)
# T1 sequence (Q9Y314 with tags, fused parts or gaps): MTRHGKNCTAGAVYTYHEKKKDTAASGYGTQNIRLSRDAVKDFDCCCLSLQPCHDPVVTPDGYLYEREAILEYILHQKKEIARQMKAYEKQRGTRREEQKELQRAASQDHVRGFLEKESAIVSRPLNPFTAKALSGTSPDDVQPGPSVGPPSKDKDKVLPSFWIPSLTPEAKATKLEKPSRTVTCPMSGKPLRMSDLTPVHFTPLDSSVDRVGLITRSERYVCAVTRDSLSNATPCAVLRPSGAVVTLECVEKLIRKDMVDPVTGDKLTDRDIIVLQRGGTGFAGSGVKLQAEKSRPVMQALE
# T2: iNOS-NOSIP protein interaction (Homo sapiens, UniProt Q9Y314)
# T2 construct: made in house; host or cells: E. coli BL21 (DE3)
# T2 sequence (Q9Y314 with tags, fused parts or gaps): T1 sequence (Q9Y314 with tags, fused parts or gaps)
# B1: NOSIP: recombinant Nitric oxide synthase interacting protein expressed in E. coli BL21 (DE3) (protein, UniProt Q9Y314 1-301, looked up)
# Nitric oxide …: MTRHGKNCTAGAVYTYHEKKKDTAASGYGTQNIRLSRDAVKDFDCCCLSLQPCHDPVVTPDGYLYEREAILEYILHQKKEIARQMKAYEKQRGTRREEQKELQRAASQDHVRGFLEKESAIVSRPLNPFTAKALSGTSPDDVQPGPSVGPPSKDKDKVLPSFWIPSLTPEAKATKLEKPSRTVTCPMSGKPLRMSDLTPVHFTPLDSSVDRVGLITRSERYVCAVTRDSLSNATPCAVLRPSGAVVTLECVEKLIRKDMVDPVTGDKLTDRDIIVLQRGGTGFAGSGVKLQAEKSRPVMQA
# Assays:
# rNOSIP = biological target: T1, rNOSIP; assay: Isothermal titration calorimetry (ITC) of rNOSIP with small molecules / 18 mer iNOS peptide (PP2); type: binding; conditions: for ΔG / ΔH / −TΔS / Kd / N (Sites): ITC 25° C.; for Kd / N (Sites): small molecule/peptide in cell, NOSIP in syringe; for Fold Change (KD): ITC KD relative to iNOS-Peptide2 = 1; for SM binding affinity with NOSIP, hierarchy: ITC, rank order
# Procedure: The 18 mer iNOS peptide (PP2) and small molecules were used for physical association of molecules in calorimetric analysis. The molecular association leads to thermodynamics changes such as Gibb's free energy change (ΔG), entropy change (ΔS), enthalpy change (ΔH) and number of binding sites (N) in interacting solution were investigated by isothermal calorimetry MICROCAL PEQ (Malvern) at 25° C. […] The experiment consisted of multiple injections and each injection contained 1.5 μl of binding solution (recombinant NOSIP solution) with 120 second spacing time between subsequent injections. Sequential titrations were carried out and the sample solution was continuously stirred at 270 rpm by the rotating paddle attached to the syringe needle. Multiple injections of NOSIP made into the sample cell containing interacting solution of peptide and small molecules. The titration curves were analyzed using the analysis software provided with the calorimeter.
# The 18 mer iNOS peptide (PP2) and five small molecules were used to analyze physical association in calorimetric analysis. The molecular association leads to thermodynamics changes such as Gibb's free energy change (ΔG), entropy change (ΔS), enthalpy change (ΔH) and number of binding sites (N) in interacting solution were investigated by isothermal calorimetry MICROCAL PEQ (Malvern) at 25° C. […] The experiment consisted of multiple injections and each injection contained 1.5 μl of binding solution with 120 second spacing time between subsequent injections. Sequential titrations were carried out and the sample solution was continuously stirred at 270 rpm by the rotating paddle attached to the syringe needle. Multiple injections of NOSIP made into the sample cell containing interacting solution of peptide and small molecules. The titration curves were analyzed using the analysis software provided with the calorimeter.
# [1] = biological target: T2, iNOS-NOSIP protein interaction; assay: SPR: inhibition of rNOSIP association with immobilized recombinant iNOS by iNOS peptides / small molecules; type: binding; conditions: for inhibition hierarchy of iNOS-NOSIP protein interaction: SPR, rank order; for Kd: Kd/Ka; for inhibition of binding of NOSIP with iNOS ligand by small molecules: rNOSIP 250 nM, small molecules 1 uM, SPR (FIG. 4)
# Procedure: Four different iNOS peptides were synthesized commercially by China peptides and iNOS peptides were used for molecular interaction studies with immobilized recombinant iNOS purified protein. The iNOS peptides mediated inhibition of rNOSIP and riNOS protein association in Bio-Rad XPR 36 surface plasmon resonance biosensor instrument. […] 250 nM of iNOS peptides was used for inhibition assay with immobilized ligand(recombinant iNOS) in SPR analysis. Similar condition and concentration of small molecules were used for inhibition of recombinant protein association with immobilized ligand. […] The rNOSIP protein was incubated with iNOS derived peptide/small molecules for 30 minutes in ice for inhibition assay before the SPR application in our study. The molecular interaction was carried out at 20° C. and kinetic parameters were determined, after fitting the association and dissociation curves to a 1:1 (Langmuir)-binding model. An activated channel without immobilized ligand was used to evaluate nonspecific binding. The response curves were also recorded on control surfaces. Results were calculated after subtraction of the control values using the ProteOn Manager software.
# The collected sensorgram data were processed by reference subtraction using double-referencing with the in-line blank buffer. The integrated ProteOn Manager software was used to fit the data with the Langmuir model describing a 1:1 binding stoichiometry. Ka is the association rate constant, Kd is the dissociation rate constant, and KD is the equilibrium dissociation constant, defined by the Kd/Ka ratio for the analytes-ligand binding.
# The five small molecules bind with NOSIP and inhibit the association of recombinant NOSIP and recombinant iNOS. The rNOSIP protein was incubated with iNOS derived peptide or small molecules for 30 minutes in ice prior to SPR application. The molecular interaction was carried out at 20° C. and kinetic parameters were determined, after fitting the association and dissociation curves to a 1:1 (Langmuir)-binding model. An activated channel without immobilized ligand (recombinant iNOS) was used to evaluate nonspecific binding. The response curves were also recorded on control surfaces. Results were calculated after subtraction of the control values using the ProteOn Manager software.
# The collected sensorgram data were processed by reference subtraction using double-referencing with the in-line blank buffer. The integrated ProteOn
# Manager software was used to fit the data with the Langmuir model describing a 1:1 binding stoichiometry. Ka is the association rate constant, Kd is the dissociation rate constant, and KD is the equilibrium dissociation constant, defined by the Kd/Ka ratio for the analytes—ligand binding.
# human PBMCs = assay: NO levels (Griess) in human PBMCs, small molecules alone or in combination; type: cell-based; conditions: 0.1 and 0.01 μM, 24 h
# Procedure: PBMCs (1 million cells/ml) from healthy individuals' blood was isolated and were treated with or without NOSIP antagonists (either alone or mixture of equimolar concentration of all 5 small molecule antagonists at 0.1 and 0.01 μM) for 30 min in triplicate wells and incubated for 24 h at 37° C. The culture supernatants were analysed by […] for nitrite concentration using Griess reagent, and the NO levels are shown as mean percent increase over untreated control. The panel on the right top of FIG. 10 depict nitrite levels by individual small molecules in human PBMCs. […] Thus a combined mixture of 5 small molecules will be desirable for use in mouse as well as humans.
# Mouse BMDMs = assay: Nitric oxide production by individual small molecules in mouse BMDM; type: cell-based
# recombinant iNOS = biological target: T3, recombinant iNOS (Homo sapiens, UniProt P35228); assay: iNOS enzyme activity in presence of recombinant NOSIP, Griess reaction; type: biochemical; conditions: iNOS 0.5 μM, NOSIP 0.5 to 5 μM, substrate L-Arginine
# T3 construct: made in house; host or cells: E. coli BL21 (DE3)
# T3 sequence (P35228 with tags, fused parts or gaps limits assumed): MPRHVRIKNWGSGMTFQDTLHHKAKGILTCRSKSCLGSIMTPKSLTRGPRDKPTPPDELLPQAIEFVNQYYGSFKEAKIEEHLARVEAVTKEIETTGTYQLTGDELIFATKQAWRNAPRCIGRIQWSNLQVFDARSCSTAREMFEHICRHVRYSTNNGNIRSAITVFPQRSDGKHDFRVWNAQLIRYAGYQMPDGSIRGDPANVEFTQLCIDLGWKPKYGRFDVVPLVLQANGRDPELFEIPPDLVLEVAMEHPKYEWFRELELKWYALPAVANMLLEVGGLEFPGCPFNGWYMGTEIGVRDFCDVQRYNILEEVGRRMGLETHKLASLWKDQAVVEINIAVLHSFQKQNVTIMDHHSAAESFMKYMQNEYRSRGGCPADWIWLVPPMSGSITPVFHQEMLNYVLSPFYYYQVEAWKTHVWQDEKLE
# Procedure: The human iNOS oxygenase domain (SEQ ID No.: 24) containing 424 nucleotide sequence and NOSIP gene (SEQ ID No.: 23) containing 301 nucleotide sequences were synthesized by GenScript and cloned in pET22b expression vector. The recombinant pET22b: iNOS and pET22b: NOSIP plasmid was used to transform competent E. coli BL21 (DE3) cells. The proteins were over expressed using 0.2 mM IPTG at 25° C. The harvested cells were resuspended and sonicated in 20 mM Tris-HCl, pH 7.5, 200 mM NaCl, 0.05% Triton X-100 and protease inhibitor (Sigma). The expressed proteins were purified by nickel nitrilotriacetic acid column using 250 mM imidazole and gel filtration chromatography. The protein was quantified by Bradford assay (Sigma) and integrity of purified protein was checked on 12% SDS-PAGE.
# In a […] assay increasing concentrations of recombinant NOSIP were mixed with recombinant iNOS along with substrate L-Arginine and the resultant product, […] was quantified by using Griess reaction kit. […] Statistical significance was assessed by one way ANOVA, Tukey& #39;s Multiple Comparison Test.
# [2] = analyte rNOSIP alone or + peptide/small molecule, ligand r iNOS, 20° C.
# [3] = analyte rNOSIP alone or + peptide/small molecule, ligand r iNOS, 20° C., 1:1 Langmuir
Molecule,ΔG (rNOSIP),ΔH (rNOSIP),−TΔS (rNOSIP),Kd (rNOSIP),N (Sites) (rNOSIP),Fold Change (KD) (rNOSIP),"SM binding affinity with NOSIP, hierarchy (rNOSIP)",inhibition hierarchy of iNOS-NOSIP protein interaction [1],"kon ([1]; analyte rNOSIP alone or + peptide/small molecule, ligand r iNOS, 20° C., 1:1 Langmuir, read-out: Ka)","Kd [1, 2]",inhibition of binding of NOSIP with iNOS ligand by small molecules [1],"nitric oxide produced, individual small molecules compared (human PBMCs)","Ka(1/Ms) [1, 3]","nitric oxide produced, individual small molecules compared (Mouse BMDMs)",inhibition of iNOS enzyme activity (Griess) (recombinant iNOS)
"COc1cc(C)ccc1OCc1nc(C(=O)NCc2n[nH]c3c2CCC3)co1 [MCULE-4640800528, N-({1H,4H,5H,6H-cyclopenta[c]pyrazol-3-yl}methyl)-2[(2-methoxy-4-methylphenoxy)methyl]-1,3-oxazole-4-carboxamide]",-8.70 kcal/mol,-8.54 ± 0.255 kcal/mol,-0.159 kcal/mol,420 ± 57.5 nM,1.04,0.766,CC4>CC11>CC6>CC5>CC13>Peptide 2 (iNOS),CC4>CC11>CC6>CC5>CC13>iNOS Peptide 2,0.563 M⁻¹ s⁻¹,870000 nM,inhibit the binding of NOSIP with iNOS ligand,more effective than molecules in human cells,,,
"CCN(c1ccccc1)S(=O)(=O)c1ccc(Cl)c(NC(=O)COC(=O)c2ccccc2SCC(=O)Nc2ccc3c(c2)OCO3)c1 [MCULE-8094061955, ({2-chloro-5-[ethyl(phenyl)sulfamoyl]phenyl}carbamoyl)methyl 2-({[(2H-1,3-benzodioxol-5-yl)carbamoyl]methyl}sulfanyl) benzoate]",-8.61 kcal/mol,-9.07 ± 0.251 kcal/mol,0.459 kcal/mol,493 ± 63.2 nM,0.993,0.899,CC4>CC11>CC6>CC5>CC13>Peptide 2 (iNOS),CC4>CC11>CC6>CC5>CC13>iNOS Peptide 2,,809000 nM,inhibit the binding of NOSIP with iNOS ligand,,6.7e^−01 1/Ms,more effective with mouse cells,
B1,,,,,,,,,,7.11 nM,,,9.57e^+04 1/Ms,,inhibits enzyme activity of iNOS
